Positions of bridges follow the written chain, without caps; N, C: chain ends. Non-standard residues stand in square brackets, D forms with d. Residues, ends and D or L forms follow the SMILES beside them. *: point of attachment. Ileψ(thiazoline)Cys = CC[C@H](C)[C@H](N)C1=N[C@H](C(=O)*)CS1; dOrn = NCCC[C@@H](N)C(=O)O
Experiments:
[1] = tested on: S. faecalis, E. rhusiopathiae, B. bronchiseptica, S. agalactiae, Streptococcus group E and Vibrio coli; assay: Bactericide test, comparison with chlortetracycline; type: cell-based; conditions: Table A
Excerpt: Test formulations were examined for bactericidal and/or bacteriostatic activity against the test organisms shown in Tables A and B. These organisms were chosen as being representative of commercially important pathogens affecting animal agriculture. The antibiotic chlortetracycline was chosen as a positive control, since it has a broad spectrum of activity against a large number of organisms, and its activity can be used for comparative purposes.
Basic test formulations of the product of Examples I, II, III, and of chlortetracycline were prepared by dissolving 16 mg (0.016 g) in 2.0 ml of stock emulsifier solution (0.25% Triton X-155 in acetone by volume) and making each solution up to 50 ml with deionized water. The concentration of the test compound in the basic formulation was 320 ppm. Lower concentrations of the test compound were obtained by diluting the basic formulation with a 4% solution of the stock emulsifier in deionized water so that each dilution in the series differed only in test compound content.
Nutrient-tryptic soy agar (NTA) consisting of 2.0% Difco Bactoagar 0.8% nutrient broth (Difco), and 0.5% tryptic soy broth (Difco) was prepared and sterilized by autoclaving. A 2 ml aliquot of each test formulation was added to 8 ml of molten NTA. This mixture was then plated in a sterile polystyrene petri dish (100 × 15 mm). After the agar was set, suspensions of each of the test organisms were simultaneously streaked onto the surface of the agar. The inoculated plates were incubated for 48 hr. at 28°C. The inhibition of growth of each organism was rated by visual comparison with the organism developing on non-treated agar. Growth inhibition reported as percent control was rated in three categories as follows: 0% control, growth equivalent to that on non-treated agar; 50% control, sparse development and separated colonies; 100% control, no visible growth or development of colonies.

[2] = Example XII: 4 week chick feeding test, first set (Table VI); type: in vivo, broiler cross chicks; conditions: Table VI
Excerpt: (§1) This example compares growth promotion activity of the product of Example I with other growth promotants at a concentration of 25 g/T in the Basal Ration described in Example VII. The other growth promotants include the product described in Example I of U.S. Pat. No. 3,542,784 -- Burch and quinoxaline-1,4-dioxide. Day old broiler cross chicks were weight equalized into groups of 8 chicks each, and four replicates of 8 chicks each were fed the experimental rations over a 4 week period.
The growth promotion tests described in Example X were repeated with the additional testing the products of Examples II and III.

[3] = Example VIII: 4 week chick feeding test at low levels; type: in vivo, broiler cross chicks
Excerpt: (§2) Day old broiler cross chicks were weight equalized into groups of 8 chicks each and were placed in battery brooders. The 32 chick treatment groups (4 replicates) were fed one of the five rations described below for a four week period. Weekly measurements of body weights and feed consumption were made by replicate, and these measurements used to calculate weight gain and feed efficiency.
The basal ration was the basal ration used in Example VII above. The remaining five rations wer obtained by mixing the indicated quantities of bacitracin (4 g/T), chlortetracycline (10 g/T), product of Example I (10 g/T), and product of Example II of U.S. Pat. No. 3,542,784 -- Burch (10 g/T) as growth promotants with the basal ration.

[4] = Example XI: 4 week chick feeding test, five replicates; type: in vivo, broiler cross chicks; conditions: for feed efficiency (in words) / growth rate (in words): Table V
Excerpt: as §1
The growth promotion tests described in Example X were repeated with the exception that fives replicates of 8 chicks each were fed the formulations described in Table V for four weeks.

[5] = Example VII: 4 week chick feeding test, weight gain and feed efficiency; type: in vivo, broiler cross chicks; conditions: analysis of variance; over Basal Ration + Bacitracin
Excerpt: One hundred twenty day-old broiler cross chicks were weight equalized into 15 groups of 8 chicks each and placed in battery brooders. The 40 chick treatment groups (5 replicates) were fed the one of the three rations described below for a four week period. weekly measurements of body weights and feed consumption were made by replicate, and these measurements used to calculate weight gain and feed efficiency.
The commercial type broiler starter basal ration which was used in this study was designated as the Basal Ration, and had the following composition:
The preceding basal ration was mixed with bacitracin at a level of 4 g/T as the only growth stimulant to simulate commercial practice. This mixture was designated as the Basal Ration + Bacitracin (4 g/T) and constituted the negative control in this study.
A second ration was prepared by fortifying the Basal Ration + bacitracin described above with the Product from Example I above at a level of 200 g/T, and was designated as Basal Ration + Bacitracin + Product of Example I (200 g/T). A third ration was prepared by fortifying the Basal Ration + bacitracin described above with chlortetracycline (CTC) at a level of 200 g/T, and was designated as Basal Ration + Bacitracin + Chlortetracycline (200 g/T).
The term "growth promotion" is used herein to describe the beneficial effect of a compound in eliciting a more rapid of weight gain when compared to the weight gain of control animals not fed the compound. "Feed efficiency" is a term regularly used in animal husbandry and is a measure of the pounds of feed required to produce a pound of gain in the weight of the animal. A lower mathmatical value for feed efficiency reflects improved performance.

[6] = Example IX: chick feeding test, titration dosage; type: in vivo, broiler cross chicks
Excerpt: as §2
The concentrations used in this test were 6.25, 12.5, 25, 50, 100, 200 and 400 g of the Product of Example I per ton of the Basal Ration described in Example VII above. The same number and size chick treatment groups were used in this test as in Example VIII above.

[7] = Example X: 4 week chick feeding test, 25 g/T; type: in vivo, broiler cross chicks
Excerpt: as §1

[8] = Example XIII: 6 week swine feeding test, growth rate and feed efficiency; type: in vivo, weanling pigs; conditions: Table VIII
Excerpt: Thirty-six weanling pigs weighing approximately thirty pounds each in good physical condition and originating from a common source were used in these tests. The pigs were allocated into sex and weight equalized pens of six pigs each. A one week period was allowed for acclimatization before testing. Three replicates of six pigs were fed the basal ration described below, and three replicates were fed the same basal ration supplemented with 25 g/T of the product of Example I.
The basal ration was a 17% commercial corn-soya pelletized formulation which was free of antibiotic and drug components. Composition of the basal ration formulation was: […]
The rations were offered ad libitum from six bushel self-feeders with a continuous supply of fresh water. The same ration formulations were used throughout the six week feeding period. Individual pig weighing were made after 0,2,4 and 6 (termination) week periods. Feed consumption records were kept on a pen basis, with feed efficiency conversion being compiled at the end of the 2nd, 4th and 6th (termination) week of feeding. Complete morbidity and mortality records were kept.

[9] = Example XII: 4 week chick feeding test, repeat with five replicates (Table VII); type: in vivo, broiler cross chicks; conditions: Table VII

## O=[N+]([O-])c1ccc(C=Cc2nc(Nc3ccccc3)c3ccccc3n2)o1 [Example IV, 2-[2-(5-nitro-2-furyl)vinyl]-4-anilinoquinazoline]
[1]
  effectiveness relative to chlortetracycline (in words): considerably more effective

## O=[N+]([O-])c1ccc(C=Cc2nc(Nc3cccc(O)c3)c3ccccc3n2)o1 [Example II, 2-[2-(5-nitro-2-furyl)vinyl]-4-(m-hydroxyanilino)quinazoline]
[1]
  effectiveness relative to chlortetracycline (in words): considerably more effective
[2]
  growth rate / feed efficiency response (in words): moderate improvements

## CC[C@H](C)[C@H](N)C1=N[C@H](C(=O)N[C@@H](CC(C)C)C(=O)N[C@H](CCC(=O)O)C(=O)N[C@H](C(=O)N[C@H]2CCCCNC(=O)[C@H](CC(N)=O)NC(=O)[C@@H](CC(=O)O)NC(=O)[C@H](Cc3cnc[nH]3)NC(=O)[C@@H](Cc3ccccc3)NC(=O)[C@H]([C@@H](C)CC)NC(=O)[C@@H](CCCN)NC2=O)[C@@H](C)CC)CS1 [Bacitracin] ({Ileψ(thiazoline)Cys}-L[dE]IK[dOrn]I[dF]H[dD]N; lactam 4-C)
[3]; 4 g/T in Basal Ration
  Improved Response Over Basal Ration: Feed Efficiency: +1.2%
  Improved Response Over Basal Ration: Gain: -2.3%
[4]; 25g/T
  Improved Response Over Basal Ration: Feed Efficiency: +3.1%
  Improved Response Over Basal Ration: Gain: +1.2%
[4]
  feed efficiency (in words): moderate improvements in feed efficiencies
  growth rate (in words): slight improvements in growth rates

## O=[N+]([O-])c1ccc(C=Cc2nc(Nc3ccc(O)cc3)c3ccccc3n2)o1 [Example I, 2-[2-(5-nitro-2-furyl)vinyl]-4-(p-hydroxyanilino)quinazoline]
[1]
  effectiveness relative to chlortetracycline (in words): considerably more effective
[5]
  statistical significance of improved feed efficiencies: significant at the 99.9% level of probability
  statistical significance of improved weight gains: significant at the 99.5% level of probability
[3]; Table II, compared with other growth promotants
  growth promotion (in words): greater growth promotion than any of the other growth promotants
[6]; 12.5 g/T
  growth promotion (in words): noticeable growth promotion
[6]; 25 and 50 g/T
  weight gain and feed efficiency (in words): improvements in weight gain and feed efficiency
[6]; 100 g/T
  weight gain (in words): absence of weight gain improvement
[6]; 200 g/T
  improvement (in words): substantial improvements
[6]; economics and efficacy
  optimum concentration: 25 g/T
[7]; 25g/T
  Average 4 Week Performance: Feed Efficiency: 1.503
  Improved Response Over Basal Ration: Feed Efficiency: +3.2%
  Improved Response Over Basal Ration: Gain: +6.2%
[7]; 25 g/T, Table IV
  growth rate and feed efficiency response (in words): strongest response in growth rate and feed efficiency
[4]; 25g/T + 25g/T bacitracin
  combined effect with bacitracin (in words): synergistic effects
[4]; 25g/T + Bacitracin (25g/T)
  Improved Response Over Basal Ration: Feed Efficiency: +7.5%
  Improved Response Over Basal Ration: Gain: +4.6%
[4]
  feed efficiency (in words): substantial improvement in feed efficiency
  growth rate (in words): moderate improvement in growth rate
[2]
  growth rate / feed efficiency response (in words): moderate improvement in production parameters
[8]
  feed efficiency (in words): enhanced feed efficiency
  growth (in words): very substantial growth improvement
[9]
  growth rate / feed efficiency response (in words): moderate improvement in production parameters

From patent US3973021A, “2-[2-(5-Nitro-2-furyl)vinyl]-4-(phydroxyanilino)quinazoline as a bactericide” (Diamond Shamrock Corporation, priority 1975, dated 1976)
